The nature of data set [1]: Photocytotoxicity against human neonatal keratinocytes assessed as decrease in cell viability preincubated for 30 mins followed by 5 J/cm2 UV light irradiation for 15 mins measured after 24 hrs by neutral red dye based assay. It counts as toxicity. Conditions: neonatal keratinocyte.
Data set [2] concerns the target T1, Nuclear receptor ROR-gamma (Homo sapiens, UniProt P51449).
T1 sequence (P51449 whole entry): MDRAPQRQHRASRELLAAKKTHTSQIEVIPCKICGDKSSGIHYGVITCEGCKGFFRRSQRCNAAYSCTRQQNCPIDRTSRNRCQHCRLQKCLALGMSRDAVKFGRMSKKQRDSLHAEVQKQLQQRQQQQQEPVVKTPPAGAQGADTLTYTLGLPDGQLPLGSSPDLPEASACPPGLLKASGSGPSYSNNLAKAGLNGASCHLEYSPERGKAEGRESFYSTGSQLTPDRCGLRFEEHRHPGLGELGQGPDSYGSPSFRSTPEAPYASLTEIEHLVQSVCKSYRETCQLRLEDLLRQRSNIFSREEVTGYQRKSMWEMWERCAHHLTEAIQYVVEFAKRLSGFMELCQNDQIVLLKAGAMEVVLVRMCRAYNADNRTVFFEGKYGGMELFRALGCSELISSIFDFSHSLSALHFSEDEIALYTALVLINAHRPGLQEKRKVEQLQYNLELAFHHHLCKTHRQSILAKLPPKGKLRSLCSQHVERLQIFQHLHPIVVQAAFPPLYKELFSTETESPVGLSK
Description: Inverse agonist activity at GAL4 DBD-fused RORgammat LBD (unknown origin) expressed in HG5LN cells after 18 hrs by luciferase reporter gene assay

Data set [3] deals with T2, Retinoic acid receptor gamma (Homo sapiens, UniProt P13631).
T2 sequence (P13631 whole entry): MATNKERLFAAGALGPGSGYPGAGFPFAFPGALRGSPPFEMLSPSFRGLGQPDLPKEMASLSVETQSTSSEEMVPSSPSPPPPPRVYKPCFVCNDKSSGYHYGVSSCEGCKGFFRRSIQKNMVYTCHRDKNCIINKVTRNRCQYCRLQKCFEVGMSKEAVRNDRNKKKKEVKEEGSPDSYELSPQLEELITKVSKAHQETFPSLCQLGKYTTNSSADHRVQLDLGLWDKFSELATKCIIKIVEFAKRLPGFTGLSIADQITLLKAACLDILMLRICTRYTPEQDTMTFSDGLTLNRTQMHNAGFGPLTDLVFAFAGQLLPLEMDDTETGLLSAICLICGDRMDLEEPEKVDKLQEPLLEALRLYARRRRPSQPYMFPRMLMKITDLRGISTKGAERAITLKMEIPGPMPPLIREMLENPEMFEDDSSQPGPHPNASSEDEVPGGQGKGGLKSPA
Description: Inverse agonist activity at GAL4 DBD-fused RARgamma LBD (unknown origin) expressed in human HG5LN cells after 18 hrs by luciferase reporter gene assay

A short description of a further data set: physchem. The settings on record: buffer, pH 6.5.
Data set [4] has as its target T1, Nuclear receptor ROR-gamma. Description: Inverse agonist activity at RORgamma in human CD4+ T cells assessed as inhibition of IL-17A release after 4 days by HTRF assay. It counts as cell-based, T-cell.
Data set [5] deals with T3, Nuclear receptor ROR-alpha (Homo sapiens, UniProt P35398).
T3 sequence (P35398 whole entry): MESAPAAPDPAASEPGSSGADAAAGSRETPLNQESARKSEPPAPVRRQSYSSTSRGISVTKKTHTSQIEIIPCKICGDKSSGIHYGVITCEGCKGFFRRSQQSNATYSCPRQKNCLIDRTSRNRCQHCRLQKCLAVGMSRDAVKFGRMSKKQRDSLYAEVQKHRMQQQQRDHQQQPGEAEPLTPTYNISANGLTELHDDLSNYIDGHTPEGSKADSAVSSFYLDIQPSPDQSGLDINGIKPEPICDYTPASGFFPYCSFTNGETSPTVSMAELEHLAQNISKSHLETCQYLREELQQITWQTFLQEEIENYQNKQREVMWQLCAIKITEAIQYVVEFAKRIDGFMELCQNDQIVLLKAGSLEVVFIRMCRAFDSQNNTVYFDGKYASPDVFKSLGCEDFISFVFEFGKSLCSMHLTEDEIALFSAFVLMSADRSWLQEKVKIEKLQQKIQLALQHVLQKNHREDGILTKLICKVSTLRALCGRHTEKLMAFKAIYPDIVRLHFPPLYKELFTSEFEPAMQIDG
Description: Inverse agonist activity at GAL4 DBD-fused RORalpha LBD (unknown origin) expressed in HG5LN cells after 18 hrs by luciferase reporter gene assay

The conditions of data set [6]: rat, microsomes.
Description: Stability in rat microsomes
Data set [7] can be described thus: in vitro. Conditions: human, plasma.
Description: Fraction unbound in human plasma at 5 uM after 4 hrs by equilibrium dialysis based LC-MS/MS analysis
The nature of data set [8]: in vitro. The settings on record: human, neonatal keratinocytes.
Description: Photocytotoxicity against human neonatal keratinocytes assessed as decrease in cell viability by measuring ratio of IC50 in presence of UV to IC50 in absence of UV after 30 mins by neutral red dye based assay
Data set [9] in a line: in vitro. The settings on record: human, hepatocytes.

Bounds are passed on as bounds.

One may read the IC50 as the concentration that gives 50% inhibition. What is called logD is lipophilicity at a set pH, counting ionised and neutral species. Low readings indicate a more hydrophilic compound, high ones a more lipophilic compound. For orientation: fraction unbound means free concentration divided by total concentration. A higher fraction unbound goes with much free substance. By hepatocyte CLint is commonly meant a measure of how fast metabolising enzymes remove a compound, apart from limits set by blood flow.

Take `O=C(O)c1ccc(-c2nn(C(=O)c3c(Cl)cccc3Cl)c3ccccc23)cc1`: the Activity entry in data set [1] was “Toxic”. Also, the results for the IC50 in data set [2] and in data set [3] were 0.06 µM and 1.3 µM, respectively. In the data set “physchem”, this molecule displayed a logD of 2.4.
Take `Cc1cccc(Cl)c1Oc1nn(-c2ccc(C(=O)O)cc2)c2ccc(C(=O)N(C)C)cc12`: the IC50 was 0.15 µM in [4], 0.12 µM in data set [2], greater than 10 µM in [3] and greater than 10 µM in [5]. Further, the Stability entry in data set [6] is “Unstable”. Further, the logD in the data set “physchem” amounted to 1.5. In the data set “in vitro [7]”, the unbound share (fraction unbound) at 4 h, 5 µM is 0.024. Besides, the selectivity ratio at 0.5 h in “in vitro [8]” was found to be 36. In addition, in “in vitro [9]”, the hepatocyte CLint at […], 1 µM was found to be 54 µL/min/1e6 cells.
In the case of `O=C(O)[C@H]1CC[C@H](n2nc(Oc3c(Cl)cccc3Cl)c3ccccc32)CC1`, the IC50 in [2] and in data set [3] was greater than 10 µM in each case. The same molecule registered a logD in the data set “physchem” of 3.1. Also, the selectivity ratio at 0.5 h in “in vitro [8]” amounted to 41.
`Cc1cccc(C)c1Sc1nn(-c2ccc(C(=O)O)cc2)c2ccc(C(=O)N(C)C)cc12`: the Activity result in [1] is reported as “Toxic”. For the same molecule, the figures for the IC50 in data set [2] and in data set [3] were 0.37 µM and greater than 10 µM, respectively. This molecule showed a logD in “physchem” of 1.6.
For `O=C(O)[C@H]1CC[C@@H](n2nc(Oc3c(Cl)cccc3Cl)c3ccccc32)CC1`, the IC50 in data set [2] and in [3] was greater than 10 µM in each case. For the same molecule, the logD in “physchem” was determined as 3.4. Further, the selectivity ratio at 0.5 h in “in vitro [8]” turned out to be 108.
As for `O=C(O)c1ccc(-n2nc(Oc3c(Cl)cccc3Cl)c3cccnc32)cc1`, the IC50 in data set [2] was 1.2 µM; in data set [3] it was 3.8 µM. In addition, in “physchem”, the logD worked out at 2.3. Also, in the data set “in vitro [8]”, the selectivity ratio at 0.5 h came out at 190.
With `CN(C)C(=O)c1ccc2c(c1)c(S(=O)(=O)c1c(Cl)cccc1Cl)nn2-c1ccc(C(=O)O)cc1`, the Activity result in data set [1] is recorded as “Toxic”. For the same molecule, the IC50 in data set [2] and in data set [3] was greater than 10 µM throughout. The molecule further showed a logD in the data set “physchem” of 0.9.
As for `CN(C)C(=O)c1ccc2c(c1)c(Sc1cccc(Cl)c1Cl)nn2-c1ccc(C(=O)O)cc1`, in data set [1], the Activity result is “Toxic”. The IC50 in data set [2] is 5.9 µM; in data set [3], greater than 10 µM. In “physchem”, the logD came out at 2.1.
For `CN(C)C(=O)c1ccc2c(c1)c(Sc1c(F)cccc1Cl)nn2-c1ccc(C(=O)O)cc1` the same measures were “Toxic”, 5 µM, greater than 10 µM and 1.4.
Regarding `CN(C)C(=O)c1ccc2c(c1)c(Sc1ccc(Cl)cc1Cl)nn2-c1ccc(C(=O)O)cc1`, the Activity result in [1] is recorded as “Toxic”. The IC50 in [2] and in data set [3] was greater than 10 µM in each case. This molecule displayed a logD in “physchem” of 2.2.
In the case of `O=C(O)c1ccc(-n2nc(Sc3c(Cl)cccc3Cl)c3ccccc32)cc1`, the Activity entry in [1] is “Toxic”. For the same molecule, the IC50 in [2] is 2.5 µM; in [3] it was 4.4 µM. The molecule also displayed a logD in the data set “physchem” of 2.9.
For the molecule `O=C(O)c1ccc(-n2nc(Oc3c(Cl)cccc3Cl)c3ccccc32)cn1`, the IC50 in [2] and in data set [3] was greater than 10 µM each time. The molecule further displayed a logD in “physchem” of 3.7. The selectivity ratio at 0.5 h in the data set “in vitro [8]” was 30.
Take `CN(C)C(=O)c1ccc2c(c1)c([S+]([O-])c1c(Cl)cccc1Cl)nn2-c1ccc(C(=O)O)cc1` (configuration not stated): in [1], the Activity result was “Toxic”. Also, the IC50 in data set [2] and in data set [3] was greater than 10 µM each time. Besides, in the data set “physchem”, the logD came out at 0.4.
On to `O=C(O)c1ccc(-n2nc(Oc3c(Cl)cccc3Cl)c3ncccc32)cc1`, for which the concentration for half-maximal inhibition (IC50) in data set [2] amounted to 2.1 µM; in data set [3] it was 6.8 µM. In the data set “physchem”, this molecule showed a logD of 1.3. Also, the selectivity ratio at 0.5 h in the data set “in vitro [8]” was determined as 11.
Regarding `CN(C)C(=O)c1ccc2c(c1)c(Sc1c(Cl)cccc1Cl)nn2-c1ccc(C(=O)O)cc1`, in data set [1], the Activity entry was “Toxic”. For the same molecule, the results for the IC50 in data set [2] and in data set [3] were 0.59 µM and greater than 10 µM, respectively. Moreover, the logD in “physchem” was 1.6.
Take `O=C(O)c1ccc(-n2nc(Oc3c(Cl)cccc3Cl)c3ccccc32)nc1`: the figures for the IC50 in data set [2] and in data set [3] were 1.1 µM and 1.9 µM, respectively. Further, in “physchem”, the pH-dependent lipophilicity (logD) is 2.9. Also, in the data set “in vitro [8]”, the selectivity ratio at 0.5 h was determined as 90.
Regarding `CCc1nn(C)c(CC)c1Oc1nn(-c2ccc(C(=O)O)cc2)c2ccccc12`, the IC50 in data set [2] was 4.8 µM; in [3], 9.1 µM. For the same molecule, the logD in “physchem” came to 1.6. Moreover, the selectivity ratio at 0.5 h in “in vitro [8]” is 121.
In the same order, the values of `Clc1cccc(Cl)c1Oc1n[nH]c2ccccc12` are greater than 10 µM, 5.7 µM, 4.9 and 1.6.

For the origin of these results see ChEMBL document CHEMBL3867469, “Discovery of phenoxyindazoles and phenylthioindazoles as RORγ inverse agonists” (Bioorg Med Chem Lett, 2016).
